Measured values: ChEMBL document CHEMBL1129522, “Inhibitors of acyl-CoA:cholesterol O-acyltransferase. 17. Structure-activity relationships of several series of compounds derived from N-chlorosulfonyl isocyanate” (J Med Chem, 1996)
“And” between values parts separate entries of the source, which are not always exact repeats. Equal values may be shown once.

Legend:
[1] = molecular target: T1, Sterol O-acyltransferase 1 (Rattus norvegicus) (UniProt O70536); assay: Acute in vivo activity was measured by the total plasma cholesterol concentration levels(TC) at dose 3 mg/kg; format: functional, organism-based; set-up: dose 3 mg/kg
T1 sequence (whole entry): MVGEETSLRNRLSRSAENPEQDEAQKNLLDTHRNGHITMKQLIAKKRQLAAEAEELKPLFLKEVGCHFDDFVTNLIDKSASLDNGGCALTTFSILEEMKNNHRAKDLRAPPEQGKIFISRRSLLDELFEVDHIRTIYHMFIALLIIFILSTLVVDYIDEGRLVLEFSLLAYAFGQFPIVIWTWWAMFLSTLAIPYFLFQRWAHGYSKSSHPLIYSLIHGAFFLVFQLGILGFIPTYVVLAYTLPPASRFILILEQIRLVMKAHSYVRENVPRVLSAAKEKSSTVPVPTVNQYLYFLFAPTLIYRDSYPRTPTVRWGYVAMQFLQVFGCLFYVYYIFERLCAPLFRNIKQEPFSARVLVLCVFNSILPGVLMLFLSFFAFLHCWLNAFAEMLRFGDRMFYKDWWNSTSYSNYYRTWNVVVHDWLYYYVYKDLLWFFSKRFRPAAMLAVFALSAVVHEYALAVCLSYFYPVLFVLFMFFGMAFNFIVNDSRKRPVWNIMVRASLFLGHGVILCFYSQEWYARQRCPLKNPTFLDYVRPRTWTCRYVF

[2] = molecular target: T2, Sterol O-acyltransferase 1 (Rattus norvegicus, UniProt O70536); assay: In vitro inhibitory activity against acyl coenzyme A:cholesterol acyltransferase 1 in microsomes of rat liver
T2 sequence (O70536 whole entry): T1 sequence (whole entry)

Rattus norvegicus = assay: Acute in vivo activity measured by total plasma cholesterol concentration levels (TC) at 30 mg/kg dose; format: functional

Delta TC [1]	SMILES	IC50 [2] [µM]	Delta TC (Rattus norvegicus) [%]
–	CCCCCCNS(=O)(=O)NC(=O)Nc1c(C(C)C)cccc1C(C)C	8.1	–
–	CCCCN(CCCC)S(=O)(=O)NC(=O)Oc1c(C(C)C)cccc1C(C)C [listing 1 of 2 here]	1.9	–
–	CCCCCCCCCCCCOS(=O)(=O)[N-]C(=O)Nc1c(C(C)C)cccc1C(C)C.[Na+]	5	-60
–	CC(C)c1cccc(C(C)C)c1OC(=O)NS(=O)(=O)Oc1c(F)cccc1F	38	9
-8%	CCCCCCOS(=O)(=O)NC(=O)Nc1c(C(C)C)cccc1C(C)C	27	–
–	CCCCCCCCCCCCOC(=O)NS(=O)(=O)Nc1c(OC)cc(OC)cc1OC	30	–
-17%	CCCCCCCCCCN(CCCCCCCCCC)S(=O)(=O)NC(=O)Nc1c(C(C)C)cccc1C(C)C	0.72	–
–	C=CCN(CC)S(=O)(=O)NC(=O)Nc1c(C(C)C)cccc1C(C)C	2.1	–
–	CC(C)c1cc([N+](=O)[O-])cc(C(C)C)c1OC(=O)NS(=O)(=O)Oc1c(C(C)C)cccc1C(C)C	> 50	18
–	CC(C)c1cccc(C(C)C)c1OC(=O)[N-]S(=O)(=O)Oc1c(C(C)C)cccc1C(C)C.[Na+]	–	-74
–	CC(C)c1ccccc1OC(=O)NS(=O)(=O)Oc1c(C(C)C)cccc1C(C)C	> 50	-37
–	CC(C)c1cccc(C(C)C)c1OS(=O)(=O)NC(=O)Oc1ccc(F)cc1F	> 50	-5
–	CC(C)c1cccc(C(C)C)c1NS(=O)(=O)NC(=O)N(Cc1ccccc1)Cc1ccccc1	16	–
–	Cc1cc(C(C)(C)C)c(OC(=O)NS(=O)(=O)N(CC2CCCO2)CC2CCCO2)c(C(C)(C)C)c1 (stereo unspecified)	21	–
–	Cc1cc(C(C)(C)C)c(OC(=O)NS(=O)(=O)N(C)CCc2ccccn2)c(C(C)(C)C)c1 [listing 1 of 2 here]	31	–
–	COc1cccc(OC)c1OC(=O)NS(=O)(=O)Oc1c(C(C)C)cccc1C(C)C [listing 2 of 2 here]	> 50	-61
–	CCCCN(CCCC)S(=O)(=O)NC(=O)Oc1c(C(C)(C)C)cc(C)cc1C(C)(C)C	3.2	–
–	Cc1cc(C)c(C)c(OC(=O)NS(=O)(=O)Oc2c(C(C)C)cccc2C(C)C)c1C	> 50	-17
–	CCCCN(CCCC)S(=O)(=O)NC(=O)Nc1c(C(C)C)cccc1C(C)C [listing 1 of 2 here]	0.53	–

Delta TC [1]	SMILES	IC50 [2] [µM]	Delta TC (Rattus norvegicus) [%]
–	CC(C)c1cccc(C(C)C)c1NC(=O)NS(=O)(=O)N(CCCN(C)C)CCCN(C)C	55	–
–	COc1cc(C(C)(C)C)c(OC(=O)[N-]S(=O)(=O)Oc2c(C(C)C)cccc2C(C)C)c(C(C)(C)C)c1.[Na+]	10	-60
–	CC(C)c1ccc(OC(=O)NS(=O)(=O)Oc2c(C(C)C)cccc2C(C)C)c(C(C)C)c1	> 50	6
–	CC(C)c1cc(Br)cc(C(C)C)c1OC(=O)NS(=O)(=O)Oc1c(C(C)C)cccc1C(C)C	31	-29
–	Cc1cccc(C)c1OC(=O)NS(=O)(=O)Oc1c(C(C)C)cccc1C(C)C	> 50	-37
–	CC(C)c1cccc(C(C)C)c1OS(=O)(=O)NC(=O)OC1C2CC3CC(C2)CC1C3 (stereo unspecified)	23	-36
–	CC(C)c1cccc(C(C)C)c1NC(=O)NS(=O)(=O)N(C)C	3.9	–
–	Cc1cc(C(C)(C)C)c(OC(=O)NS(=O)(=O)N(C)CCc2ccccn2)c(C(C)(C)C)c1 [listing 2 of 2 here]	31	–
–	CCCCCCCCN(CCCCCCCC)S(=O)(=O)NC(=O)Oc1c(C(C)(C)C)cc(C)cc1C(C)(C)C	2.7	–
–	COC(=O)NS(=O)(=O)Nc1c(C(C)C)cccc1C(C)C	> 100	–
–	CC(C)NS(=O)(=O)NC(=O)Nc1c(C(C)C)cccc1C(C)C	18	–
–	CCCCN(CCCC)S(=O)(=O)NC(=O)Oc1c(C(C)C)cccc1C(C)C [listing 2 of 2 here]	1.9	–
–	CC(C)c1cccc(C(C)C)c1OC(=O)NS(=O)(=O)N1CCOCC1	> 100	–
–	CCCCCCCCCCN(CCCCCCCCCC)S(=O)(=O)NC(=O)Oc1c(C(C)(C)C)cc(C)cc1C(C)(C)C	89	–
–	CC(C)c1cccc(C(C)C)c1OC(=O)NS(=O)(=O)N1CCCCC1	> 100	–
-29%	CCCCN(CC)S(=O)(=O)NC(=O)Nc1c(C(C)C)cccc1C(C)C	1.2	–
–	CC(C)c1cccc(C(C)C)c1NS(=O)(=O)NC(=O)Oc1c(-c2ccccc2)cccc1-c1ccccc1	> 25	–
–	CCCCCCN(CCCCCC)S(=O)(=O)NC(=O)Oc1c(C(C)(C)C)cc(C)cc1C(C)(C)C	4.3	–
–	CC(C)c1cccc(C(C)C)c1NC(=O)NS(=O)(=O)N1CCCC1	15	–

Delta TC [1]	SMILES	IC50 [2] [µM]	Delta TC (Rattus norvegicus) [%]
–	Cc1cc(C(C)(C)C)c(OC(=O)NS(=O)(=O)N(C(C)C)C(C)C)c(C(C)(C)C)c1	3.2	–
–	CCCCN(CCCC)S(=O)(=O)N(C)C(=O)Nc1c(C(C)C)cccc1C(C)C	> 5	–
–	CC(C)c1cccc(C(C)C)c1OC(=O)NS(=O)(=O)N1CCN(C)CC1	> 100	–
–	CCCCCCCCCCOS(=O)(=O)NC(=O)Nc1c(C(C)C)cccc1C(C)C	> 10	–
-48%	CCCCCCCCCCC(C)OS(=O)(=O)NC(=O)Nc1c(C(C)C)cccc1C(C)C (stereo unspecified)	–	–
–	CCN(CC)S(=O)(=O)NC(=O)Nc1c(C(C)C)cccc1C(C)C	2.5	–
–	CCCCCN(CCCCC)S(=O)(=O)NC(=O)Oc1c(C(C)(C)C)cc(C)cc1C(C)(C)C	2.2	–
–	CCCCCCCCCCCCOC(=O)NS(=O)(=O)Nc1c(C(C)C)cccc1C(C)C	33	–
-5%	CC(C)c1cccc(C(C)C)c1NS(=O)(=O)NC(=O)NC(c1ccccc1)c1ccccc1	30	–
–	CC(C)c1cccc(C(C)C)c1NC(=O)NS(=O)(=O)N1CCCCC1	17	–
–	CN(C(=O)Oc1c(C(C)(C)C)cccc1C(C)(C)C)S(=O)(=O)NC(c1ccccc1)c1ccccc1	4.6	–
–	CCCCCCCCCCCCOS(=O)(=O)NC(=O)Nc1c(C(C)C)cccc1C(C)C	6.8	–
–	CCCCN(CCCC)S(=O)(=O)NC(=O)Nc1c(C(C)C)cccc1C(C)C [listing 2 of 2 here]	0.36	–
-17%	CC(C)c1cccc(C(C)C)c1NC(=O)NS(=O)(=O)N1CCC(c2ccccc2)CC1	10.4	–
-18%	CCCCCCCCCCCCCCCCCCN(C)S(=O)(=O)NC(=O)Nc1c(C(C)C)cccc1C(C)C	1.9	–
-37%	CCCCN(C)S(=O)(=O)NC(=O)Nc1c(C(C)C)cccc1C(C)C	2.3	–
–	COC(=O)NS(=O)(=O)Oc1c(C(C)C)cccc1C(C)C	> 100	–
2%	C=CCN(CC=C)S(=O)(=O)NC(=O)Nc1c(C(C)C)cccc1C(C)C	2.7	–

SMILES	Delta TC [1]	IC50 [2] [µM]	Delta TC (Rattus norvegicus) [%]
CC(C)c1cccc(C(C)C)c1OC(=O)NS(=O)(=O)N1CCc2ccccc21	-31%	43	–
CCCCCCNS(=O)(=O)NC(=O)Oc1c(C(C)C)cccc1C(C)C	-12%	21	–
COc1cccc(OC)c1OC(=O)NS(=O)(=O)Oc1c(C(C)C)cccc1C(C)C [listing 1 of 2 here]	-12% and -4%	–	–
COc1cc(C(C)(C)C)c(OC(=O)NS(=O)(=O)NCC(c2ccccc2)c2ccccc2)c(C(C)(C)C)c1	-15%	82	–
CC(C)c1cccc(C(C)C)c1OC(=O)NS(=O)(=O)N1CCCC1	-4%	53	–
CC(C)c1cccc(C(C)C)c1OC(=O)NS(=O)(=O)N(Cc1ccccc1)Cc1ccccc1	-17%	20	–
CCCCCCCCN(C)S(=O)(=O)NC(=O)Oc1c(C(C)(C)C)cc(C)cc1C(C)(C)C	1%	18	–
CCCCCCNS(=O)(=O)NC(=O)Oc1c(C(C)(C)C)cc(C)cc1C(C)(C)C	-10%	19.4	–
